# Source: ChEMBL document CHEMBL1201862, “PubChem BioAssay data set” (2004)
#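 Values below derive from 48-hour exposures of cells grown in 96-well plates, with endpoints linearly interpolated between the two concentrations bracketing the appropriate inhibition level. GI50: concentration for 50% inhibition of growth.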 Calls of active or inactive are those of the source. No stated cut-off is given here; in the data, active = GI50 up to about 1.1 µM and inactive = higher.
# How the values were obtained:
# Experiment in all cases: NCI anticancer screen, dose series, 48 h
# 786-0 = system: 786-0
# A498 = system: A498
# A549 = system: A549
# ACHN = system: ACHN
# BT-549 = system: BT-549
# CAKI-1 = system: CAKI-1
# CCRF-CEM = system: CCRF-CEM
# COLO 205 = system: COLO 205
# DLD-1 = system: DLD-1
# DMS-114 = system: DMS-114
# DMS-273 = system: DMS-273
# DU-145 = system: DU-145
# EKVX = system: EKVX
# HCC 2998 = system: HCC 2998
# HCT-116 = system: HCT-116
# HCT-15 = system: HCT-15
# HOP-18 = system: HOP-18
# HOP-92 = system: HOP-92
# HT-29 = system: HT-29
# Hs-578T = system: Hs-578T
# IGROV-1 = system: IGROV-1
# K562 = system: K562
# KM-20L2 = system: KM-20L2
# KM12 = system: KM12
# LOX IMVI = system: LOX IMVI
# LXFL 529 = system: LXFL 529
# M14 = system: M14
# M19-MEL = system: M19-MEL
# MCF7 = system: MCF7
# MDA-MB-231 = system: MDA-MB-231
# MDA-MB-435 = system: MDA-MB-435
# MDA-N = system: MDA-N
# MOLT-4 = system: MOLT-4
# Malme-3M = system: Malme-3M
# NCI-H226 = system: NCI-H226
# NCI-H23 = system: NCI-H23
# NCI-H460 = system: NCI-H460
# NCI-H522 = system: NCI-H522
# OVCAR-4 = system: OVCAR-4
# OVCAR-5 = system: OVCAR-5
# OVCAR-8 = system: OVCAR-8
# PC-3 = system: PC-3
# RPMI-8226 = system: RPMI-8226
# RXF 393 = system: RXF 393
# RXF 631 = system: RXF 631
# SF-268 = system: SF-268
# SF-295 = system: SF-295
# SF-539 = system: SF-539
# SK-MEL-28 = system: SK-MEL-28
# SK-MEL-2 = system: SK-MEL-2
# SK-MEL-5 = system: SK-MEL-5
# SK-OV-3 = system: SK-OV-3
# SN12C = system: SN12C
# SNB-19 = system: SNB-19
# SNB-75 = system: SNB-75
# SNB-78 = system: SNB-78
# SR = system: SR
# SW-620 = system: SW-620
# T47D = system: T47D
# TK-10 = system: TK-10
# U-251 = system: U-251
# UACC-257 = system: UACC-257
# UACC-62 = system: UACC-62
# UO-31 = system: UO-31
# XF498 = system: XF498
# HL-60 = system: HL-60
# HOP-62 = system: HOP-62
# OVCAR-3 = system: OVCAR-3
structure (smiles),measurement,setting,value
Nc1ncnc2c(C3OC(CO)C(O)C3O)c[nH]c12 (centres undefined),GI50,786-0,3.17 nM (active)
same,GI50,A498,21.3 nM (active)
same,GI50,A549,3.99 nM (active)
same,GI50,ACHN,1.25 nM (active)
same,GI50,BT-549,13.8 nM (active)
same,GI50,CAKI-1,3.06 nM (active)
same,GI50,CCRF-CEM,2.24 nM (active)
same,GI50,COLO 205,10 nM (active)
same,GI50,DLD-1,0.728 nM (active)
same,GI50,DMS-114,4.21 nM (active)
same,GI50,DMS-273,10 nM (active)
same,GI50,DU-145,6 nM (active)
same,GI50,EKVX,14.4 nM (active)
same,GI50,HCC 2998,6.21 nM (active)
same,GI50,HCT-116,10 nM (active)
same,GI50,HCT-15,3.72 nM
same,GI50,HOP-18,8.09 nM (active)
same,GI50,HOP-92,< 15 nM (active)
same,GI50,HT-29,5.6 nM (active)
same,GI50,Hs-578T,1.29 nM (active)
same,GI50,IGROV-1,4.22 nM (active)
same,GI50,K562,2.38 nM (active)
same,GI50,KM-20L2,2.76 nM (active)
same,GI50,KM12,5.33 nM (active)
same,GI50,LOX IMVI,2.82 nM (active)
same,GI50,LXFL 529,4.82 nM (active)
same,GI50,M14,12.3 nM (active)
same,GI50,M19-MEL,13.9 nM (active)
same,GI50,MCF7,15.2 nM (active)
same,GI50,MDA-MB-231,7.8 nM (active)
same,GI50,MDA-MB-435,31.4 nM (active)
same,GI50,MDA-N,13.1 nM (active)
same,GI50,MOLT-4,3.36 nM (active)
same,GI50,Malme-3M,< 13.5 nM (active)
same,GI50,NCI-H226,< 13.8 nM (active)
same,GI50,NCI-H23,13.1 nM (active)
same,GI50,NCI-H460,2.69 nM (active)
same,GI50,NCI-H522,6.14 nM (active)
same,GI50,OVCAR-4,14.6 nM (active)
same,GI50,OVCAR-5,8.04 nM (active)
same,GI50,OVCAR-8,2.27 nM (active)
same,GI50,PC-3,5.15 nM (active)
same,GI50,RPMI-8226,2.56 nM (active)
same,GI50,RXF 393,3.01 nM (active)
same,GI50,RXF 631,7.76 nM (active)
same,GI50,SF-268,10 nM (active)
same,GI50,SF-295,10 nM (active)
same,GI50,SF-539,8.13 nM (active)
same,GI50,SK-MEL-28,< 21.8 nM (active)
same,GI50,SK-MEL-2,10 nM (active)
same,GI50,SK-MEL-5,5.64 nM (active)
same,GI50,SK-OV-3,0.552 nM (active)
same,GI50,SN12C,3.77 nM (active)
same,GI50,SNB-19,13.1 nM (active)
same,GI50,SNB-75,3.28 nM (active)
same,GI50,SNB-78,10 nM (active)
same,GI50,SR,2.98 nM (active)
same,GI50,SW-620,1.95 nM (active)
same,GI50,T47D,4.05 nM (active)
same,GI50,TK-10,70.5 nM (active)
same,GI50,U-251,8.47 nM (active)
same,GI50,UACC-257,18.5 nM (active)
same,GI50,UACC-62,7.18 nM (active)
same,GI50,UO-31,4.26 nM (active)
same,GI50,XF498,8.81 nM (active)
CC1(Br)C(=O)NC(=O)N([C@H]2C[C@H](O)[C@@H](CO)O2)C1N=[N+]=[N-] (some centres undefined),GI50,786-0,> 100000 nM (inactive)
same,GI50,A498,> 100000 nM (inactive)
same,GI50,A549,> 100000 nM (inactive)
same,GI50,ACHN,> 100000 nM (inactive)
same,GI50,CAKI-1,> 100000 nM (inactive)
same,GI50,CCRF-CEM,> 100000 nM (inactive)
same,GI50,COLO 205,> 100000 nM (inactive)
same,GI50,DLD-1,> 100000 nM (inactive)
same,GI50,DMS-114,> 91200 nM (inactive)
same,GI50,DMS-273,> 100000 nM (inactive)
same,GI50,EKVX,> 100000 nM (inactive)
same,GI50,HCC 2998,> 100000 nM (inactive)
same,GI50,HCT-116,> 100000 nM (inactive)
same,GI50,HCT-15,> 100000 nM
same,GI50,HL-60,> 100000 nM (inactive)
same,GI50,HOP-18,> 100000 nM (inactive)
same,GI50,HOP-62,> 100000 nM (inactive)
same,GI50,HOP-92,> 100000 nM (inactive)
same,GI50,HT-29,> 100000 nM (inactive)
same,GI50,IGROV-1,> 100000 nM (inactive)
same,GI50,K562,> 100000 nM (inactive)
same,GI50,KM-20L2,> 100000 nM (inactive)
same,GI50,KM12,> 100000 nM (inactive)
same,GI50,LOX IMVI,> 100000 nM (inactive)
same,GI50,LXFL 529,> 100000 nM (inactive)
same,GI50,M14,> 100000 nM (inactive)
same,GI50,M19-MEL,> 100000 nM (inactive)
same,GI50,MOLT-4,> 100000 nM (inactive)
same,GI50,Malme-3M,> 100000 nM (inactive)
same,GI50,NCI-H226,> 100000 nM (inactive)
same,GI50,NCI-H23,> 100000 nM (inactive)
same,GI50,NCI-H460,> 100000 nM (inactive)
same,GI50,NCI-H522,> 100000 nM (inactive)
same,GI50,OVCAR-3,> 100000 nM (inactive)
same,GI50,OVCAR-4,> 100000 nM (inactive)
same,GI50,OVCAR-5,> 76200 nM (inactive)
same,GI50,OVCAR-8,> 100000 nM (inactive)
same,GI50,RPMI-8226,> 100000 nM (inactive)
same,GI50,RXF 393,> 100000 nM (inactive)
same,GI50,RXF 631,> 100000 nM (inactive)
same,GI50,SF-268,> 100000 nM (inactive)
same,GI50,SF-295,> 100000 nM (inactive)
same,GI50,SF-539,> 100000 nM (inactive)
same,GI50,SK-MEL-28,> 100000 nM (inactive)
same,GI50,SK-MEL-2,> 100000 nM (inactive)
same,GI50,SK-MEL-5,> 100000 nM (inactive)
same,GI50,SK-OV-3,> 100000 nM (inactive)
same,GI50,SN12C,> 100000 nM (inactive)
same,GI50,SNB-19,> 100000 nM (inactive)
same,GI50,SNB-75,> 100000 nM (inactive)
same,GI50,SNB-78,> 100000 nM (inactive)
same,GI50,SR,> 100000 nM (inactive)
same,GI50,SW-620,> 100000 nM (inactive)
same,GI50,TK-10,> 100000 nM (inactive)
same,GI50,U-251,> 100000 nM (inactive)
same,GI50,UACC-257,> 100000 nM (inactive)
same,GI50,UACC-62,> 100000 nM (inactive)
same,GI50,UO-31,> 100000 nM (inactive)
same,GI50,XF498,> 100000 nM (inactive)
